Experimental data taken from PMC11053447, “Human ABC and SLC Transporters: The Culprit Responsible for Unspecific PSMA-617 Uptake?” (Pharmaceuticals, 2024).
Read-outs that look alike come from different tables or passages of the source.

Experiments:
MRP1 = MRP1 (Homo sapiens, UniProt P33527); details: for Relative inhibition / ATP dependent transport / Relative ATP dependent transport: E217βG probe; for ATP dependent transport / Relative ATP dependent transport: mean (n=3) ± SD
Procedure: (§1) The incubations were carried out in the presence of 4 mM ATP or AMP to distinguish between transporter-mediated uptake and passive diffusion into the vesicles. […] Afterwards, the reaction mixtures were pre-incubated for 15 min at 37 °C for MRP1 or at 32 °C for BCRP, MDR1 and MRP4, respectively. The transporter assay was initiated through the addition of 25 μL of pre-warmed 12 mM MgATP (or 12 mM AMP in assay buffer as a background control). The reactions were quenched through the addition of 200 μL of ice-cold washing buffer and immediate filtration via glass fiber filters mounted onto a 96-well plate (filter plate). The filters were washed (5 × 200 μL of ice-cold washing buffer) and dried, and the amount of probe substrate inside the filtered vesicles was determined using LSC. The experiments were conducted in triplicate.
(§2) Calculation of ATP-dependent transport and inhibition for vesicular transport inhibition
(§3) For all wells the amount of the translocated probe substrate was determined in counts per minute (cpm).
(§4) ATP-dependent transport (pmol/mg protein/min) is calculated for each concentration using the following
𝐴𝑐𝑐𝐴𝑇𝑃 ∙ 𝑉 ∙ 𝐶𝐶 𝐴𝑐𝑐𝐴𝑀𝑃 ∙𝑉 ∙𝐶𝐶
(§5) 𝐴𝑇𝑃 − 𝑑𝑒𝑝𝑒𝑛𝑑𝑒𝑛𝑡 𝑎𝑐𝑐𝑢𝑚𝑢𝑙𝑎𝑡𝑖𝑜𝑛 = ( 𝑇𝐶𝑃𝑀 𝑠𝑢𝑏) − ( 𝑇𝐶𝑃𝑀 𝑠𝑢𝑏)
(§6) • AccATP: probe substrate accumulation with ATP (cpm)
(§7) • AccAMP: probe substrate accumulation with AMP (cpm)
(§8) • Tcpm: cpm in dosing solution V: volume per well (µL)
(§9) • CCsub: probe substrate concentration (µM)
• Prot: total protein per well (mg)
• t: incubation time (min)
(§10) Relative ATP-dependent transport (%) values were calculated using the following equation:
(§11) 𝑅𝑒𝑙𝑎𝑡𝑖𝑣𝑒 𝐴𝑇𝑃 − 𝑑𝑒𝑝𝑒𝑛𝑑𝑒𝑛𝑡 𝑡𝑟𝑎𝑛𝑠𝑝𝑜𝑟𝑡 (%) = 𝐴 − 𝐵 ∙ 100
(§12) • A: amount of translocated substrate in the presence of test substance (TS) and ATP
(§13) • B: amount of translocated substrate in the presence of test substance (TS) and AMP
(§14) • C: amount of translocated substrate in the presence of solvent and ATP
(§15) • D: amount of translocated substrate in the presence of solvent and AMP
(§16) Relative inhibition (%) is calculated by setting probe substrate transport in the absence of test substance as
(§17) 𝑅𝑒𝑙𝑎𝑡𝑖𝑣𝑒 𝑖𝑛ℎ𝑖𝑏𝑖𝑡𝑖𝑜𝑛 (%) = 𝐴𝑐𝑐𝑆𝑝𝑒𝑐𝑖𝑓𝑖𝑐,𝑥 ∙100
(§18) • Accspecific,x: transporter specific accumulation for a given sample (pmol/mg/min)
(§19) • Accspecific,vehicle: transporter specific accumulation for a solvent control (pmol/mg/min)

human OAT2v1 = target: T1, human OAT2v1 (Homo sapiens, UniProt Q9Y694); test: SLC transporter substrate assay, HEK293-OAT2v1-LV vs control HEK293-Mock-LV cells; type: in vitro ADME; details: 20 min
T1 construct: host or cells: HEK293-OAT2v1-LV
T1 sequence (Q9Y694 1-546 isoform Q9Y694-2): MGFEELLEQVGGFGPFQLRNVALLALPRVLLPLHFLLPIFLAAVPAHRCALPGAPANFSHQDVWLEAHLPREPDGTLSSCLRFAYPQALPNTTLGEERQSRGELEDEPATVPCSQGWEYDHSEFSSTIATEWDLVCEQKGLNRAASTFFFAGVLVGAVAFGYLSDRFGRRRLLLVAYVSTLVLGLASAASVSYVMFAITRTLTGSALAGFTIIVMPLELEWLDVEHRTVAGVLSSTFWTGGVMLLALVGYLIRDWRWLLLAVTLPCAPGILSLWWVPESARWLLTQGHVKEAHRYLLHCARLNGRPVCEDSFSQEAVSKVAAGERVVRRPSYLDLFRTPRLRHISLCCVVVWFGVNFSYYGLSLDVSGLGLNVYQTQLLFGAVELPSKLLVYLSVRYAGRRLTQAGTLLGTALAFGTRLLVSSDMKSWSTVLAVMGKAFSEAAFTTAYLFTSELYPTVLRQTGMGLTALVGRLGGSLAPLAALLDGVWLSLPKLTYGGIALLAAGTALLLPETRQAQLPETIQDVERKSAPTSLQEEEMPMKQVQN
Procedure: SI4. Results of transporter substrate assays (SLC)
Human Incubation Positive control substrate/ Control Special Incubation Assay […]
(Cell line) at 37°C [min] [h]
OAT2v1 cGMP (1.5) / Mock-B- Poly-D-lysine
Fold accumulation = UPTTRP
PSMA-617 in SLC transporters.
NA: not analyzed. Test substances were considered as substrates in case of fold accumulation values > 2 combined with inhibition values higher than 50%.
4.4 Organic anion transporter OAT2v1 […]
expressed as mean (n=3) ± SD. Concentrations are nominal.
Table S13: ([α,β-3H]Nal)Lu-PSMA-617-accumulation in OAT2v1 transporter expressing (HEK293-OAT2v1-LV) and […]
Conditions Accumulation (pmol/mg protein)
Compound Nominal In OAT2v1 Fold concentration Minutes transporter In control Active accumulation
[µM] expressing cells transport
Positive control (accumulation in cpm)

MDR1 = MDR1 (Homo sapiens, UniProt P08183); details: for Relative inhibition / ATP dependent transport / Relative ATP dependent transport: NMQ probe; for ATP dependent transport / Relative ATP dependent transport: mean (n=3) ± SD
Chain of MDR1 (P08183 whole entry): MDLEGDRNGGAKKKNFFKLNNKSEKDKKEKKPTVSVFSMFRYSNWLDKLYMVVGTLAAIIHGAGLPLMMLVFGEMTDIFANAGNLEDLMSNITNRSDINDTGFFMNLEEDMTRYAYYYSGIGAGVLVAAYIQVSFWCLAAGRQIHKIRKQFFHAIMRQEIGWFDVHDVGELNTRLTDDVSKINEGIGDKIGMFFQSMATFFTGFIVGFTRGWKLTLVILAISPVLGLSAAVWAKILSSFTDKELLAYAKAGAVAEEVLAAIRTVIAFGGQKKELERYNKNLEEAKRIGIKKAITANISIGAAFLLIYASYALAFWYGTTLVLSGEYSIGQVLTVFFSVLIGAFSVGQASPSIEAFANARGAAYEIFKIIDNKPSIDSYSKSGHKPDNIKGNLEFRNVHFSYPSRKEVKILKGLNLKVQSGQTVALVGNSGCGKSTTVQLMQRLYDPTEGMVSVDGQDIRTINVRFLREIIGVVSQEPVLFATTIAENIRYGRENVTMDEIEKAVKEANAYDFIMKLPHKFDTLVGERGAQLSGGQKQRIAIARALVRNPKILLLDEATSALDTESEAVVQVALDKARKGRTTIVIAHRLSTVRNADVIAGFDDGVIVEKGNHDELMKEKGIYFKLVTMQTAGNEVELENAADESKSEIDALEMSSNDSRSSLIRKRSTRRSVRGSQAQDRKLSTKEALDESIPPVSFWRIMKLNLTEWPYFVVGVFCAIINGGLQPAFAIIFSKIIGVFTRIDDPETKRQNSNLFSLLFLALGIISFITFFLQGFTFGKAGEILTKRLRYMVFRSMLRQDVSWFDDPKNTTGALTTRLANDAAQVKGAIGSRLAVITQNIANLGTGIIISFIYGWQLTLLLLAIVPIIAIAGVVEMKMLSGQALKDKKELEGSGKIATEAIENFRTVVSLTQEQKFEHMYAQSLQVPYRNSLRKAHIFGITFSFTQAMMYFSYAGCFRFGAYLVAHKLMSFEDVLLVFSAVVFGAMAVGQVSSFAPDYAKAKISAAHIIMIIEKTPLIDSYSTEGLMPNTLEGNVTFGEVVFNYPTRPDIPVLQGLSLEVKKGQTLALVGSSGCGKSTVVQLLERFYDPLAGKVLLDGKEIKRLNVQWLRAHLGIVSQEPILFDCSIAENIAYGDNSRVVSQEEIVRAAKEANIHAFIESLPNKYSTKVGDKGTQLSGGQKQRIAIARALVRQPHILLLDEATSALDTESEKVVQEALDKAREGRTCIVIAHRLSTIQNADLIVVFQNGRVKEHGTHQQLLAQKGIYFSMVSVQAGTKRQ
Procedure: as §1, §2, §3, §4
𝐴𝑐𝑐𝐴𝑇𝑃 ∙ 𝑉 ∙ 𝐶𝐶 𝐴𝑐𝑐𝐴𝑀𝑃 ∙𝑉 ∙𝐶𝐶
as §5, §6, §7, §8, §9
• Prot: total protein per well (mg)
• t: incubation time (min)
as §10, §11, §12, §13, §14, §15, §16, §17, §18, §19
Data are expressed as mean (n=3)
N-methyl quinidine (NMQ) measured in the vesicular transport inhibition assay.
Nominal ATP Relative ATP Relative
Compound concentration [µM] dependent transport dependent transport inhibition [%]
[pmol/mg/min] [% of control]
Data are expressed as mean (n=3) ± SD.

[1] = 0.30 and 3.00 µM, inhibition >20% defined as significant
[2] = 0.03 µM nominal + Indomethacin 300 µM
[3] = 0.30 µM nominal + Indomethacin 300 µM

Chain of MRP1 (P33527 whole entry): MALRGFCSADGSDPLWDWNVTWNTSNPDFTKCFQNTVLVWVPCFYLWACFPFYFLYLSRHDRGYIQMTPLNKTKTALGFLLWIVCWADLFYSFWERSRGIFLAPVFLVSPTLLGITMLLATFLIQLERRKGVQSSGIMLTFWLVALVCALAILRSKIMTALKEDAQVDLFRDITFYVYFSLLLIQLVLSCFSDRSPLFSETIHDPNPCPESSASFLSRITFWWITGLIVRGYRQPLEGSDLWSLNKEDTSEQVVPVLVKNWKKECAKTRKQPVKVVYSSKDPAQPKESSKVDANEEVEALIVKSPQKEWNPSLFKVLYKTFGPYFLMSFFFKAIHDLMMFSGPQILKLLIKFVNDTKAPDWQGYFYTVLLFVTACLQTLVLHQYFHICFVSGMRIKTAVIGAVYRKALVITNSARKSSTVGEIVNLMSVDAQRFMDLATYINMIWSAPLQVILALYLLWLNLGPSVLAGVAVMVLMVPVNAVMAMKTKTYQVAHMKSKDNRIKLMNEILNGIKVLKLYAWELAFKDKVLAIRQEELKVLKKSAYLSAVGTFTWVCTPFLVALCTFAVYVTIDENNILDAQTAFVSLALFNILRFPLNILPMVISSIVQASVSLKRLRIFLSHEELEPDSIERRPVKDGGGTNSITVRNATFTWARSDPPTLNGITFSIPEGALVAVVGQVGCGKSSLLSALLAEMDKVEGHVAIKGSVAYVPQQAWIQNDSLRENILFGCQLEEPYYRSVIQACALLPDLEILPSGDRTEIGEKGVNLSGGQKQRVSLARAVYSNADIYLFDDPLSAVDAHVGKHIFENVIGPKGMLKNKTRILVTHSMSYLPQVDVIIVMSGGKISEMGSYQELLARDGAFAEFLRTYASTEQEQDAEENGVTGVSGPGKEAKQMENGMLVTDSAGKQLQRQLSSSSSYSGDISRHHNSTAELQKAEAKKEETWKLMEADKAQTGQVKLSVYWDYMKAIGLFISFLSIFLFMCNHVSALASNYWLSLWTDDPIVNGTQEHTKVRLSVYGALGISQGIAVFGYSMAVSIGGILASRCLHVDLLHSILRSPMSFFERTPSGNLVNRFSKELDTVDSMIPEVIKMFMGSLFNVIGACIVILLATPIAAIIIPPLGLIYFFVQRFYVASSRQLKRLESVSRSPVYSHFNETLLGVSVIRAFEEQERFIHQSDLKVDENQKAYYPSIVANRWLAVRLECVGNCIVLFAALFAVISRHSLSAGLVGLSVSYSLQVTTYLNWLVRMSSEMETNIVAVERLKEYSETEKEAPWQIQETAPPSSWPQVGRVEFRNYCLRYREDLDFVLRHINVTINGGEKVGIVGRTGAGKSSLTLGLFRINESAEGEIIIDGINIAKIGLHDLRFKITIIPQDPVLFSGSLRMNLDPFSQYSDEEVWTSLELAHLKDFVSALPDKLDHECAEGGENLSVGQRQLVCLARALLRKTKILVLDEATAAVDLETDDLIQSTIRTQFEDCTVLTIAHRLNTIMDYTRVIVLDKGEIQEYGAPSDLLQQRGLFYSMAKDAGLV

## [3H]C(c1ccc2ccccc2c1)C([3H])(NC(=O)C1CCC(CNC(=O)CN2CCN(CC(=O)[O-])CCN(CC(=O)[O-])CCN(CC(=O)[O-])CC2)CC1)C(=O)NCCCCC(NC(=O)NC(CCC(=O)O)C(=O)O)C(=O)O.[Lu+3] (stereo not drawn) [([α,β-^3H]Nal)Lu-PSMA-617]
MRP1; [1]
  Inhibitor assessment (MRP1): no inhibitor
MRP1; test substance 0.30 µM nominal
  Relative inhibition: 9%
  ATP dependent transport: 734.00 ± 31.29 pmol/mg/min
  Relative ATP dependent transport: 91.45 ± 7.39 % of control
MRP1; test substance 3.00 µM nominal
  Relative inhibition: 9%
  ATP dependent transport: 730.00 ± 37.02 pmol/mg/min
  Relative ATP dependent transport: 90.95 ± 7.76 % of control
Human OAT2v1; [2]
  Accumulation in OAT2v1 transporter expressing cells: 0.06 ± 0.01 pmol/mg protein
  Accumulation in control cells: 0.04 ± 0.00 pmol/mg protein
  Accumulation, active transport: 0.01 ± 0.01 pmol/mg protein
  Fold accumulation: 1.24
Human OAT2v1; 0.03 µM nominal, no inhibitor
  Accumulation in OAT2v1 transporter expressing cells: 0.07 ± 0.01 pmol/mg protein
  Accumulation in control cells: 0.04 ± 0.00 pmol/mg protein
  Accumulation, active transport: 0.03 ± 0.01 pmol/mg protein
  Fold accumulation: 1.77
Human OAT2v1; [3]
  Accumulation in OAT2v1 transporter expressing cells: 0.66 ± 0.10 pmol/mg protein
  Accumulation in control cells: 0.43 ± 0.03 pmol/mg protein
  Accumulation, active transport: 0.24 ± 0.10 pmol/mg protein
  Fold accumulation: 1.55
Human OAT2v1; 0.30 µM nominal, no inhibitor
  Accumulation in OAT2v1 transporter expressing cells: 0.66 ± 0.04 pmol/mg protein
  Accumulation in control cells: 0.36 ± 0.03 pmol/mg protein
  Accumulation, active transport: 0.30 ± 0.05 pmol/mg protein
  Fold accumulation: 1.83
Human OAT2v1; 0.3 µM
  Max. transporter-specific fold accumulation, without inhibitor: 1.83
Human OAT2v1; absence and presence of indomethacin
  Uptake via transporter (OAT2v1): not taken up
Human OAT2v1; Indomethacin, 0.3 µM
  Max. transporter-specific fold accumulation, with inhibitor: 1.55
MDR1; [1]
  Inhibitor assessment (MDR1): no inhibitor
MDR1; test substance 0.30 µM nominal
  Relative inhibition: 8%
  ATP dependent transport: 4902.67 ± 183.91 pmol/mg/min
  Relative ATP dependent transport: 91.93 ± 3.56 % of control
MDR1; test substance 3.00 µM nominal
  Relative inhibition: -5%
  ATP dependent transport: 5625.67 ± 230.64 pmol/mg/min
  Relative ATP dependent transport: 105.48 ± 4.44 % of control
